Assay results reported in patent US8980914B2, “Therapeutic agent for chronic obstructive pulmonary disease and method for treatment for chronic obstructive pulmonary disease with the same” (Mariposa Health Limited, priority 2003, dated 2015).

How the values were obtained:
[1] = tested on: airway hyper-responsiveness induced by ozone; assay: Airway hyper-responsiveness model induced by inhalation of ozone in guinea pigs (lung resistance after methacholine); format: in vivo; settings: RLung after methacholine inhalation 5 hours after end of ozone exposure
Protocol: This test was performed so as to evaluate the pharmacological effect of the 7-aminoquinolinone derivatives of the present invention in an airway hyper-responsiveness model induced by inhalation of ozone in guinea pigs. The test procedure will now be described.
Guinea pigs were fasted for 18 hours or more. The animals were administered the test substance (30 mg/kg) and theophylline (100 mg/kg) one hour before ozone inhalation. For the non-stimulation group and the vehicle control group, vehicle (5 mL/kg) was administered similarly.
The animals were put into an acryl-made chamber (29×19×25 cm), subjected to induction of ozone generated by an ozonizer (EUV3-XU; EBARA JITSUGYO CO, LTD.) and exposed for 2 hours. The ozone concentration in the chamber was approximately 3 ppm. It was confirmed every 30 minutes that this concentration was maintained during exposure by an ozone monitor (EG-5000; EBARA JITSUGYO CO, LTD.) (measured value: 2.53 to 3.40 ppm). For the non-stimulation group, the animals were exposed to a mixed gas (oxygen: 95%, carbonic acid gas: 5%) similarly. The ozone concentration at that time was also confirmed similarly (acceptable concentration: 0.01 ppm or less, measured value: 0.00 to 0.01 ppm).
The measurement of airway hyper-responsiveness was performed 5 hours after the end of ozone exposure. The measurement of lung resistance (RLung) was performed according to the method of R. E. Giles et al. in the same manner as in Example 2. That is, the animals were anesthetized with Nembutal (Trade name: 50 mg/kg, i.p., sodium pentobarbital) and subjected to cannulation into esophagus and trachea. The esophagus and trachea cannulas were connected to a respirator (ventilation volume: 6 mL/kg, ventilation frequency: 60 times/min, SN-480-7) and the RLung after inhalation of methacholine (100 μg/mL, for 1.5 minutes) was measured by the respiratory function analyzer (PULMOS-II; M.I.P.S) through a flow sensor (connected to Validyle DF45F (for flow rate) and DP45P (for pressure)). The inhalation of methacholine was performed with an ultrasonic nebuliser (NE-U17; Omron Matsuzaka) connected to the respirator under artificial respiration.
Used RLung represents 10 breaths having a stable value in a range from 1 to 30 breaths after initiation of each measurement for both before inhalation and during methacholine inhalation. The average of the RLung was calculated. The extreme values in RLung that occurred when animal moved during the measurement were excluded from the calculations.
The percentage of increase of RLung was calculated by the following equation. Increase in lung resistance (%)=([RLung after inhalation of methacholine]−[RLung before administration])/[RLung before administration]×100

[2] = Peroxynitrite scavenging activity (oxidation of dihydrorhodamine 123); format: biochemical; settings: oxidation of dihydrorhodamine 123 by peroxynitrite, phosphate buffer pH 7.4; read-out: 50% Inhibitory concentration on oxidation (IC50)
Protocol: This test was performed by estimating the antioxidative effect of the test substance using peroxynitrite quantitative method as a test system with dihydrorhodamine 123 so as to confirm the ability of the 7-aminoquinolinone derivatives of the present invention to scavenge peroxynitrite. This is a method described in NITRIC OXIDE: Biology and Chemistry Vol. 1, 145-157, 1997.
The test substance was weighted in an amount of approximately 10 mg, dissolved in a 10% Tween 80 solution and adjusted to 5×10^−3 mol/L. Then, the solution was diluted with 0.1 mol/L phosphate buffer (pH=7.4) to 5×10^−4 mol/L. The diluent was further diluted stepwise with a phosphate buffer containing 1% Tween 80 to obtain substance solution. The preparation was conducted before use. The final concentration of the test substance was adjusted to 3×10^−6, 1×10^−6, 3×10^−7, 1×10^−7, and 3×10^−8 mol/L, respectively.
To 20 μL of peroxynitrite solution (manufactured by DOJINDO LABORATORIES), 1980 μL of 0.1 mol/L sodium hydroxide was added and the mixture was diluted 100 times. The absorbance of the maximum absorption wavelength near 300 nm was measured using a UV-visible spectrophotometer and the concentration was calculated according to the following equation. Concentration(mmol/L)=(absorbance/1670)×100×1000
Based on the concentration calculated in the above section, dilution with a 0.1 mol/L sodium hydroxide solution was conducted and adjusted to 10 mmol/L. 990 μL of a 0.1 mol/L sodium hydroxide solution was taken into a 1.5 mL-Eppen tube. To the Eppen tube, 10 μL of a solution adjusted to 10 mmol/L was added to prepare a 100 μmol/L solution.
Dihydrorhodamine 123 was dissolved into 1.155 mL of dimethylsulfoxide, and adjusted to the concentration of 25 mmol/L. This solution was dispensed into 20 μL aliquots and then the aliquots were stored in a biomedical freezer (about −20° C.) and used as a stock solution.
To 490 μL of 0.02% Tween 80 containing 0.1 mol/L phosphate buffer, 10 μL of 25 mmol/L of a thawed dihydrorhodamine 123 stock solution was added to make 500 μmol/L. The prepared solution was diluted with 0.1 mol/L phosphate buffer (pH=7.4) 1000 times to prepare 500 nmol/L of a dihydrorhodamine 123 solution.
(1) To a 3.5 mL brown vial containing a stirring bar, 1470 μL of a 500 nmol/L dihydrorhodamine 123 solution and then 15 μL of the test substance solution was added. For the blank and control groups, 15 μL of 0.1 mol/L phosphate buffer containing 1% Tween 80, as a solvent for the test substance solution, was added. After the addition, the mixture was stirred with a stirrer for 30 minutes.
15 μL of a 100 μmol/L peroxynitrite solution was added while stirring. For the blank group, 15 μL of a 0.1 mol/L sodium hydroxide solution was added. After stirring for 15 minutes, fluorescence intensity was measured.
Fluorescence intensity of the reaction solution was measured using a spectrophotofluorometer under the following measuring conditions: excitation wavelength, 500 nm; emission wavelength, 536 nm; measuring times, one; response, 1 sec; photomultiplier tube voltage, Low; band width at excitation side, 10 nm; bandwidth at emission side, 10 nm.
The oxidation rate of dihydrorhodamine 123 when adding the test substance was calculated, taking the oxidation rate of dihydrorhodamine 123 for control as 100, according to the following equation: Oxidation rate (%) of dihydrorhodamine 123=(measured value for each group−measured value for blank)/(measured for control−measured value for blank)×100 Calculation of Oxidation Inhibition Concentration (IC50)
50% oxidation concentration, that is 50% oxidation inhibition concentration (IC50) was calculated by giving a straight line from two points surrounding 50% oxidation rate.

[3] = tested on: airway hyper-responsiveness induced by peroxynitrite; assay: Airway hyper-responsiveness model induced by exposure of peroxynitrite in guinea pigs (lung resistance after histamine); format: in vivo; settings: 30 mg/kg orally one hour before peroxynitrite, histamine 32 μg/kg i.v. on 5-day, control group 759, non-stimulation group 382
Protocol: This test was performed so as to investigate the pharmacological effect of the 7-aminoquinolinone derivative of the present invention on an airway hyper-responsiveness model induced by exposure of peroxynitrite in guinea pigs. The test procedure will now be described.
Guinea pigs were fasted for 18 hours or more. The animals were administrated the test substance (30 mg/kg) orally one hour before exposure of peroxynitrite and the neck was dissected under ether anesthesia, and then the trachea was exposed. 0.1 mL of 1 mmol/L peroxynitrite was administered intratracheally into pulmonary side by pushing with air and, after the administration, the incision was sutured and disinfected.
The measurement of airway hyper-responsiveness was performed on 5-day, taking the day of model preparation 0-day. Guinea pigs were fasted for 18 hours or more. The measurement of lung resistance; (RLung) was performed according to the method of R. E. Giles et al. (R. E. Giles, M. P. Finkel and J. Mazurowski: Use of an Analog On-Line Computer for the Evaluation of Pulmonary Resistance and Dynamic Compliance in the Anesthetized Dog. Arch. Int. Pharmacodyn. 194, 213-222 (1971)). That is, the animals were anesthetized with Nembutal (Trade name: 40 mg/kg, i.v., sodium pentobarbital) and subjected to cannulation into esophagus, trachea and jugular veins (for administration of histamine). The esophagus and trachea cannulas were connected to an artificial respirator (ventilation volume: 6 mL/kg, ventilation frequency: 60 times/min, SN-480-7) and the Rlung was measured after intravenous administration (dose of 0.1 mL/kg) of physiological saline solution and histamine (32 μg/kg) using a total plethysmograph system via flow sensor, connected to Validyne DF45F (for flow rate) and DP45P (for pressure). RLung before administration was determined by averaging values of any 3 out of 20 breaths, RLung after administration of physiological saline solution was determined by averaging values of any 3 out of 5 breaths, and RLung after administration of histamine was determined by averaging values of the following 3 breaths; 1) showing the maximum lung resistance, 2) taken just before and 3) taken just after the one with the maximum lung resistance, out less than 20 breaths. (The extreme values in RLung that occurred when animal moved during the measurement were excluded from the calculations.)
The percentage of increase in lung resistance was calculated by the following equation. Increase in lung resistance (%)=([RLung after administration of histamine]−[RLung before administration])/[RLung before administration]×100

[4] = test substance 30 mg/kg one hour before ozone inhalation

Compound | Increase in lung resistance (%) [1, 4] | IC50 [2] | Increase in lung resistance (%) [3] | Increase in lung resistance (%) ([1]; theophylline 100 mg/kg one hour before ozone inhalation)
CCCCn1c(=O)c(O)c(OC)c2ccc(N(C)C)cc21 [Compound 309] | 34% | 800 nM | 435% | –
CCCCCCn1c(=O)c(OC)c(O)c2ccc(NCC)cc21 [Compound 330] | 22% | 790 nM | 417% | –
COc1c(O)c2ccc(NC(=O)c3ccccc3)cc2n(C)c1=O [Compound 514] | 31% | 910 nM | 434% | –
CCCCOc1c(O)c2ccc(N(C)C)cc2n(CCCC)c1=O [Compound 303] | 27% | 840 nM | 427% | –
CCCCCCOc1c(O)c2ccc(N)cc2n(C)c1=O [Compound 53] | 29% | 880 nM | 440% | –
CCCCCCCCn1c(=O)c(O)c(OC)c2ccc(N)cc21 [Compound 181] | 25% | 940 nM | 425% | –
CCCCCCCCn1c(=O)c(OC)c(O)c2ccc(N)cc21 [Compound 173] | 30% | 890 nM | 430% | –
CCCCCCCCOc1c(O)c2ccc(NC(=O)C=Cc3cc(OC)c(O)c(OC)c3)cc2n(C)c1=O [Compound 551] | 22% | 710 nM | 416% | –
COc1c(O)c(=O)n(C)c2cc(N)ccc12 [Compound 58] | 27% | 810 nM | 423% | –
Cn1c(=O)c2[nH]cnc2n(C)c1=O [theophylline, reference compound] | – | – | – | 26%
COc1cc(C=CC(=O)Nc2ccc3c(O)c(OCC=C(C)CCC=C(C)C)c(=O)n(C)c3c2)cc(OC)c1O [Compound 553] | 28% | 980 nM | 417% | –
CCCCCCCCn1c(=O)c(OC)c(O)c2ccc(NCC)cc21 [Compound 359] | 31% | 850 nM | 431% | –
CCNc1ccc2c(O)c(OC)c(=O)n(C)c2c1 [Compound 236] | 28% | 880 nM | 428% | –
CCCCCCCCOc1c(O)c2ccc(NC(=O)c3ccccc3)cc2n(C)c1=O [Compound 519] | 26% | 830 nM | 440% | –
COc1cc(C=CC(=O)Nc2ccc3c(O)c(OC)c(=O)n(C)c3c2)cc(OC)c1O [Compound 546] | 27% | 790 nM | 422% | –
CCCCCCOc1c(O)c2ccc(NC(=O)C=Cc3ccc(O)c(OC)c3)cc2n(C)c1=O [Compound 581] | 30% | 760 nM | 430% | –
CCCCCCCCOc1c(O)c2ccc(NC(C)=O)cc2n(C)c1=O [Compound 396] | 22% | 940 nM | 421% | –
CCCCCCOc1c(O)c2ccc(NC=O)cc2n(CCCC)c1=O [Compound 459] | 26% | 940 nM | 427% | –
CCCCNc1ccc2c(OC)c(O)c(=O)n(CC)c2c1 [Compound 276] | 30% | 820 nM | 430% | –
CCCCCCOc1c(O)c2ccc(N)cc2n(CCCCCC)c1=O [Compound 147] | 29% | 790 nM | 429% | –
COc1c(OC(C)=O)c(=O)n(C)c2cc(N)ccc12 [Compound 32] | 32% | 960 nM | 435% | –
CCCCCCCCOc1c(O)c2ccc(N)cc2n(CC)c1=O [Compound 87] | 29% | 840 nM | 432% | –
